From patent US10111435B2, “Herbicidal compositions containing N-(1,3,4-oxadiazol-2-yl)-aryl carboxylic acid amides” (BAYER CROPSCIENCE AKTIENGESELLSCHAFT, priority 2013, dated 2018)

How the values were obtained:
Format in all cases: in vivo
Solanum nigrum (SOLNI) = experiment: greenhouse post-emergence herbicidal efficacy against SOLNI
How it was run: (§1)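 Seeds sown in sandy loam pots were sprayed post-emergence in the greenhouse at 300 L/ha with combinations or single active ingredients. Visual damage versus untreated plants scored 0–100% at 14 and 21 days.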

[1] = tested on: Chenopodium album (CHEAL); experiment: greenhouse post-emergence herbicidal efficacy against CHEAL
How it was run: as §1

Phalaris minor (PHAMI) = experiment: greenhouse post-emergence herbicidal efficacy against PHAMI
How it was run: (§2)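 Seeds sown in 8 cm pots of sandy loam soil and grown in a greenhouse; treatments sprayed post-emergence at 300 L/ha. Visual damage scored against untreated plants at 14 and 21 days (0% no effect, 100% complete kill); mixture values compared with Colby expected values to assign synergism, additivity or antagonism.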

[2] = tested on: Matricaria inodora (MATIN); experiment: greenhouse post-emergence herbicidal efficacy against MATIN; conditions: 14 days after application
How it was run: as §2

Setaria viridis (SETVI) = experiment: greenhouse post-emergence herbicidal efficacy against SETVI
How it was run: as §1

[3] = tested on: Echinochloa crus-galli (ECHCG); experiment: greenhouse post-emergence herbicidal efficacy against ECHCG
How it was run: as §1

Galium aparine (GALAP) = experiment: greenhouse post-emergence herbicidal efficacy against GALAP; conditions: for Efficacy: 14 days after application
How it was run: as §2

[4] = tested on: Polygonum convolvulus (POLCO); experiment: greenhouse post-emergence herbicidal efficacy against POLCO; conditions: 21 days after application
How it was run: as §2

Avena fatua (AVEFA) = experiment: greenhouse post-emergence herbicidal efficacy against AVEFA
How it was run: as §2

Kochia scoparia (KCHSC) = experiment: greenhouse post-emergence herbicidal efficacy against KCHSC
How it was run: as §1

[5] = tested on: Lolium multiflorum (LOLMU); experiment: greenhouse post-emergence herbicidal efficacy against LOLMU; conditions: 21 days after application
How it was run: as §2

Bromus sterilis (BROST) = experiment: greenhouse post-emergence herbicidal efficacy against BROST; conditions: 21 days after application
How it was run: as §2

[6] = tested on: Amaranthus retroflexus (AMARE); experiment: greenhouse post-emergence herbicidal efficacy against AMARE; conditions: 0.4 g of a.i./ha
How it was run: as §1

DIGSA = experiment: greenhouse post-emergence herbicidal efficacy against DIGSA; conditions: 14 days after application, 0.4 g of a.i./ha
How it was run: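 Pot-grown plants in sandy loam sprayed post-emergence at 300 L/ha in the greenhouse, with compositions or single active ingredients. Damage scored visually against untreated plants 14 and 21 days after application (0% none, 100% complete kill); combination interactions evaluated by Colby's expected-value formula.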

Eleusine indica (ELEIN) = experiment: greenhouse post-emergence herbicidal efficacy against ELEIN
How it was run: as §1

Poa annua (POAAN) = experiment: greenhouse post-emergence herbicidal efficacy against POAAN
How it was run: as §2

[7] = 14 days after application, 0.1 g of a.i./ha
[8] = 14 days after application, 0.4 g of a.i./ha
[9] = 21 days after application, 0.4 g of a.i./ha
[10] = 21 days after application, 0.1 g of a.i./ha
[11] = 14 days after application, 2.5 g of a.i./ha
[12] = 14 days after application, 10 g of a.i./ha
[13] = 21 days after application, g of a.i./ha: A1-13 2.5, indaziflam 40
[14] = 21 days after application, g of a.i./ha: A1-13 2.5, mesosulfuron-methyl 10
[15] = 21 days after application, g of a.i./ha: A1-13 10, indaziflam 40
[16] = 21 days after application, g of a.i./ha: A1-13 10, mesosulfuron-methyl 10
[17] = g of a.i./ha: A1-13 2.5, indaziflam 10
[18] = g of a.i./ha: A1-13 10, indaziflam 10
[19] = 21 days after application; 0.1 g of a.i./ha
[20] = 21 days after application; 0.4 g of a.i./ha
[21] = 21 days after application, dosage 10 g of a.i./ha
[22] = g of a.i./ha: A1-13 2.5, mesosulfuron-methyl 10
[23] = g of a.i./ha: A1-13 10, mesosulfuron-methyl 10

Cc1nnc(NC(=O)c2ccc(C(F)(F)F)c(S(C)(=O)=O)c2C)o1 [A1-13]
35%: Efficacy (Avena fatua (AVEFA); [12])
40%: Efficacy ([2]; 10 g of a.i./ha) | Efficacy [2, 18] | Efficacy (Galium aparine (GALAP); [17]) | Efficacy (Poa annua (POAAN); [12])
5%: Efficacy [5, 18] | Efficacy [5, 23] | Efficacy (Bromus sterilis (BROST); [18]) | Efficacy (Bromus sterilis (BROST); [23])
10%: Efficacy (Solanum nigrum (SOLNI); [7]) | Efficacy (Solanum nigrum (SOLNI); [9]) | Efficacy [1, 8] | Efficacy (Setaria viridis (SETVI); [8]) | Efficacy (Setaria viridis (SETVI); [9]) | Efficacy (Setaria viridis (SETVI); [20]) | Efficacy ([6]; 21 days after application) | Efficacy (Eleusine indica (ELEIN); [9]) | Efficacy (Eleusine indica (ELEIN); [20]) | Efficacy (Poa annua (POAAN); [14])
60%: Efficacy against GALAP (Galium aparine (GALAP); [21])
0%: Efficacy [1, 7] | Efficacy [1, 10] | Efficacy (Setaria viridis (SETVI); [7]) | Efficacy (Setaria viridis (SETVI); [10]) | Efficacy (Setaria viridis (SETVI); [19]) | Efficacy [3, 7] | Efficacy [3, 8] | Efficacy [3, 10] | Efficacy [3, 9] | Efficacy [3, 19] | Efficacy [3, 20] | Efficacy [4, 22] | Efficacy [4, 23] | Efficacy (Avena fatua (AVEFA); [13]) | Efficacy (Avena fatua (AVEFA); [14]) | Efficacy (Kochia scoparia (KCHSC); [7]) | Efficacy (Kochia scoparia (KCHSC); [8]) | Efficacy (Kochia scoparia (KCHSC); [9]) | Efficacy (Kochia scoparia (KCHSC); [19]) | Efficacy (Kochia scoparia (KCHSC); [20]) | Efficacy (Bromus sterilis (BROST); g of a.i./ha: A1-13 2.5, mesosulfuron-methyl 2.5) | Efficacy (Bromus sterilis (BROST); [22]) | Efficacy ([6]; 14 days after application) | Efficacy (DIGSA) | Efficacy (Eleusine indica (ELEIN); [10]) | Efficacy (Eleusine indica (ELEIN); [19])
3%: Efficacy (Avena fatua (AVEFA); [15]) | Efficacy (Avena fatua (AVEFA); [16])
15%: Efficacy (Phalaris minor (PHAMI); [13]) | Efficacy (Phalaris minor (PHAMI); 21 days after application, g of a.i./ha: A1-13 2.5, mesosulfuron-methyl 2.5) | Efficacy (Phalaris minor (PHAMI); [14])
50%: Efficacy (Galium aparine (GALAP); 10 g of a.i./ha) | Efficacy (Galium aparine (GALAP); g of a.i./ha: A1-13 10, indaziflam 40)
30%: Efficacy (Phalaris minor (PHAMI); [11]) | Efficacy (Phalaris minor (PHAMI); [12]) | Efficacy (Phalaris minor (PHAMI); 14 days after application, g of a.i./ha: A1-13 2.5, indaziflam 40) | Efficacy (Phalaris minor (PHAMI); 14 days after application, g of a.i./ha: A1-13 10, indaziflam 40) | Efficacy ([2]; 2.5 g of a.i./ha) | Efficacy [2, 17]
20%: Efficacy (Solanum nigrum (SOLNI); [8]) | Efficacy (Phalaris minor (PHAMI); [15]) | Efficacy (Phalaris minor (PHAMI); [16]) | Efficacy (Eleusine indica (ELEIN); [8]) | Efficacy (Poa annua (POAAN); [11]) | Efficacy against POAAN (Poa annua (POAAN); [21])
